Reference: ChEMBL document CHEMBL3877259, “Design and discovery of 4-anilinoquinazoline-urea derivatives as dual TK inhibitors of EGFR and VEGFR-2” (Eur J Med Chem, 2017)

Legend:
[1] = Antiproliferative activity against human HT-29 cells measured after 48 hrs by MTT assay; assay type: functional, cell-based; details: HT-29, 48 h
[2] = Antiproliferative activity against human MCF7 cells measured after 48 hrs by MTT assay; assay type: functional, cell-based; details: MCF7, 48 h
[3] = Antiproliferative activity against human H460 cells measured after 48 hrs by MTT assay; assay type: functional, cell-based; details: NCI-H460, 48 h
[4] = molecular target: Vascular endothelial growth factor receptor 2 (Homo sapiens, UniProt P35968); test: Inhibition of N-terminal GST-tagged human VEGFR-2 cytoplasmic domain (790 to 1356 residues) expressed in baculovirus expression system preincubated for 10 mins followed by FAM-labelled peptide substrate addition by caliper mobility shift assay
Vascular endothelial growth factor receptor 2, sequence (P35968 whole entry, the tested form may be a part): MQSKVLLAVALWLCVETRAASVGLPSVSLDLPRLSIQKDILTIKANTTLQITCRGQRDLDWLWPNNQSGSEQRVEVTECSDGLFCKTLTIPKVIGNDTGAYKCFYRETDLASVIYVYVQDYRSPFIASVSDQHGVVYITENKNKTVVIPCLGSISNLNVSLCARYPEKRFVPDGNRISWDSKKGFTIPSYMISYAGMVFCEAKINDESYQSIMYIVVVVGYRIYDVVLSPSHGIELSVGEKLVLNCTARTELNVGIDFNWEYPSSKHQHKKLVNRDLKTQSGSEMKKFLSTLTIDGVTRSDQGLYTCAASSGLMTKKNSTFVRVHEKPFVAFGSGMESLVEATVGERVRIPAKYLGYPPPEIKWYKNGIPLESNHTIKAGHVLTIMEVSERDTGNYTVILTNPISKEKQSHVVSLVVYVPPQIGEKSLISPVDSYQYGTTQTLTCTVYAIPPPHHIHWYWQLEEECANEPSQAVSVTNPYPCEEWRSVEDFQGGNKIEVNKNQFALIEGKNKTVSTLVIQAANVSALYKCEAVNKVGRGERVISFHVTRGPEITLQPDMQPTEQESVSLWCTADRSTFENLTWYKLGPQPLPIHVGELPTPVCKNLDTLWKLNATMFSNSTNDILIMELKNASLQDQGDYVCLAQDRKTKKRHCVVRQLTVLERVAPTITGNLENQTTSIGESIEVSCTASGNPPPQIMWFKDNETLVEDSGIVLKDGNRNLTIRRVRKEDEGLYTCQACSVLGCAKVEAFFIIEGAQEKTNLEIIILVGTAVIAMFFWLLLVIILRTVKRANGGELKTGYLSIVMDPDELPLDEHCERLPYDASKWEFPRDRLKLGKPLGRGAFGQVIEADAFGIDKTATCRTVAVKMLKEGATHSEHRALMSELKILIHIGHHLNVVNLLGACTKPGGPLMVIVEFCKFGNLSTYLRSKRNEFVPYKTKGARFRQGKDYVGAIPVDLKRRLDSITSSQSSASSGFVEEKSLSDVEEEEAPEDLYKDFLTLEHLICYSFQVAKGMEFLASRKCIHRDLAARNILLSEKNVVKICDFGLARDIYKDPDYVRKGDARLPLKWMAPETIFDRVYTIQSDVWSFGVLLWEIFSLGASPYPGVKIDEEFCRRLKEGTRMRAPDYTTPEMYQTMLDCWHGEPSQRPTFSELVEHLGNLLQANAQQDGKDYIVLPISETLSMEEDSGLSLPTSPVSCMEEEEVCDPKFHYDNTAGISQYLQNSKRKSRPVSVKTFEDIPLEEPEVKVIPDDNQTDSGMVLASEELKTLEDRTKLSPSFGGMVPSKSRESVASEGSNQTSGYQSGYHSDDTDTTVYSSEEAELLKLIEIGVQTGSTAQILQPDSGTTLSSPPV

[5] = molecular target: Epidermal growth factor receptor (Homo sapiens, UniProt P00533)
Epidermal growth factor receptor, sequence (P00533 whole entry): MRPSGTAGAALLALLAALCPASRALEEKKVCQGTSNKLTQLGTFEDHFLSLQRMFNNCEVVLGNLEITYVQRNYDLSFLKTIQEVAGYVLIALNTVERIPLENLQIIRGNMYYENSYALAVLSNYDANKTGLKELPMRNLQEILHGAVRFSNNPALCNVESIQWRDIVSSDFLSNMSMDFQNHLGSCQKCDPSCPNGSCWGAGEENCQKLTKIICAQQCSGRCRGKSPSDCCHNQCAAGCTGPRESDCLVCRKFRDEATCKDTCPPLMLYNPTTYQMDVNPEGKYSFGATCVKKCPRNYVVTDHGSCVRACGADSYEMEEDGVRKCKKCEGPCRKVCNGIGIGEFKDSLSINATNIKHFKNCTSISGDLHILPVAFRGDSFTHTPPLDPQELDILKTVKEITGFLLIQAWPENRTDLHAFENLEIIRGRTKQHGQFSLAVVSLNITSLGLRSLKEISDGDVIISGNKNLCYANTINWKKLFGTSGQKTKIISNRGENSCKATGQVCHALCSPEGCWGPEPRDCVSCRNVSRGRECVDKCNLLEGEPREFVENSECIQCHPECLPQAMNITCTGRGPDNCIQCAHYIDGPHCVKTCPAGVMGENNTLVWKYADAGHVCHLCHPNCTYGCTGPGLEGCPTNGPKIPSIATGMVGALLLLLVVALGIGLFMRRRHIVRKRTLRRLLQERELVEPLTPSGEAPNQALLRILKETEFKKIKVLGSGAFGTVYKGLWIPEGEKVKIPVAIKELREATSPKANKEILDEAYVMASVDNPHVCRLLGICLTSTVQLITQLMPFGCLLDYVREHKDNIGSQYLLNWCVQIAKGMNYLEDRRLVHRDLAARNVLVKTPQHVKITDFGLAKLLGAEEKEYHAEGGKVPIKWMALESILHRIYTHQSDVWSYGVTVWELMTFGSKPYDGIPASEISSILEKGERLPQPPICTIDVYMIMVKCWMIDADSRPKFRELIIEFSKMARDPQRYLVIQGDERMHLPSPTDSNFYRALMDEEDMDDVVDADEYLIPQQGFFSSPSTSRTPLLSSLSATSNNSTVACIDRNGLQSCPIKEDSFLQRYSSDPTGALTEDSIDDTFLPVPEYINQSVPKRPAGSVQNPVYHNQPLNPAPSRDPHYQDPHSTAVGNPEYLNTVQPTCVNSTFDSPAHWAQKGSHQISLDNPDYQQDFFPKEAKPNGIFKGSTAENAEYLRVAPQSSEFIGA

| IC50 [4] | IC50 [5] | Compound | IC50 [1] | IC50 [2] | IC50 [3] |
| --- | --- | --- | --- | --- | --- |
| > 10 µM | > 10 µM | COc1cc2c(Nc3ccc(NC(=O)Nc4ccc(C)cc4)cc3)ncnc2cc1OCc1ccccc1 | > 50 µM | > 50 µM | 25.4 µM |
| > 10 µM | > 10 µM | COc1cc2c(Nc3ccc(NC(=O)Nc4ccccc4C)cc3)ncnc2cc1OCc1ccccc1 | 28.8 µM | > 50 µM | 23.9 µM |
| > 10 µM | 4.65 µM | COc1cc2c(Nc3ccc(NC(=O)Nc4cccc(Cl)c4)cc3)ncnc2cc1OCc1ccccc1 | > 50 µM | > 50 µM | > 50 µM |
| > 10 µM | > 10 µM | COc1cc2c(Nc3ccc(NC(=O)Nc4ccc(C)c(C)c4)cc3)ncnc2cc1OCc1ccccc1 | > 50 µM | > 50 µM | 49.6 µM |
| > 10 µM | > 10 µM | COc1cc2c(Nc3ccc(NC(=O)Nc4ccc(Cl)cc4)cc3)ncnc2cc1OCc1ccccc1 | > 50 µM | > 50 µM | 38.8 µM |
| 0.815 µM | 0.235 µM | COc1cc2c(Nc3ccc(NC(=O)Nc4ccc(Cl)cc4)cc3)ncnc2cc1OCCCN1CCN(C)CC1 | 28.7 µM | > 50 µM | 17.8 µM |
| 0.576 µM | 0.194 µM | COc1cc2c(Nc3ccc(NC(=O)Nc4ccccc4)cc3)ncnc2cc1OCCCN1CCN(C)CC1 | 49.4 µM | 29.1 µM | 28.4 µM |
| > 10 µM | 2.93 µM | COc1cc2c(Nc3ccc(NC(=O)Nc4ccccc4)cc3)ncnc2cc1OCc1ccccc1 | > 50 µM | 22.8 µM | > 50 µM |

The remaining lines, values behind:

| Compound | IC50 [4] | IC50 [5] | IC50 [1] | IC50 [2] | IC50 [3] |
| --- | --- | --- | --- | --- | --- |
| COc1cc2/c(=N/c3ccc(Br)cc3F)nc[nH]c2cc1OCC1CCN(C)CC1 [VANDETANIB] |  |  | 18.9 µM | 11.8 µM | 37.1 µM |
| COC(=O)CNC(=O)c1ccc(Nc2ncnc3cc(OCCN4CCCCC4)c(OC)cc23)cc1 | 0.966 µM |  | > 50 µM | 8.39 µM | > 50 µM |
| COc1cc2c(Nc3ccc(NC(=O)Nc4ccc(Cl)cc4)c(Cl)c3)ncnc2cc1OCCCN1CCOCC1 | 0.528 µM | 0.017 µM | 22 µM | 39.2 µM | 28 µM |
| COc1cc2c(Nc3ccc(NC(=O)Nc4ccc(F)c(Cl)c4)c(Cl)c3)ncnc2cc1OCCCN1CCN(C)CC1 | 0.014 µM | 0.078 µM | 6.41 µM | 3.2 µM | 12.1 µM |
| COc1cc2c(Nc3ccc(NC(=O)Nc4ccccc4)c(Cl)c3)ncnc2cc1OCCCN1CCN(C)CC1 | 0.261 µM | 0.014 µM | 17.3 µM | > 50 µM | 33 µM |
| COc1cc2c(Nc3ccc(NC(=O)Nc4ccccc4C)cc3)ncnc2cc1OCCCN1CCN(C)CC1 | 1.99 µM | 0.502 µM | > 50 µM | 32.2 µM | 22.3 µM |
| COC(=O)CNC(=O)c1ccc(Nc2ncnc3cc(OCCCN4CCOCC4)c(OC)cc23)cc1 | 0.404 µM | 0.763 µM | > 50 µM | > 50 µM | > 50 µM |
| COc1cc2c(Nc3ccc(NC(=O)Nc4ccccc4C)c(Cl)c3)ncnc2cc1OCCCN1CCN(C)CC1 | 0.178 µM |  | 4.81 µM | 6.21 µM | > 50 µM |
| COc1cc2c(Nc3ccc(NC(=O)Nc4ccc(Cl)cc4)c(Cl)c3)ncnc2cc1OCCN1CCCCC1 | > 10 µM | > 10 µM | 4.38 µM | 1.89 µM | 5 µM |
| COc1cc2c(Nc3ccc(NC(=O)Nc4ccc(Cl)cc4)c(Cl)c3)ncnc2cc1OCCCN1CCN(C)CC1 | 0.279 µM | 0.001 µM | 20.7 µM | > 50 µM | 28 µM |
| COc1cc2c(Nc3ccc(NC(=O)Nc4ccccc4)c(Cl)c3)ncnc2cc1OCCN1CCCCC1 | 1.87 µM | 0.212 µM | > 50 µM | > 50 µM | > 50 µM |
| COc1cc2c(Nc3ccc(NC(=O)Nc4ccc(C)c(C)c4)c(Cl)c3)ncnc2cc1OCCCN1CCOCC1 | 0.014 µM | 0.051 µM | 7.29 µM | 2.63 µM | 3.52 µM |
| COc1cc2c(Nc3ccc(NC(=O)Nc4cccc(Cl)c4)cc3)ncnc2cc1OCCCN1CCN(C)CC1 | 0.588 µM | 0.5 µM | 22.9 µM | 24.7 µM | 8.16 µM |
| COc1cc2c(Nc3ccc(NC(=O)Nc4ccc(C)c(C)c4)c(Cl)c3)ncnc2cc1OCCN1CCCCC1 | 0.018 µM | 0.817 µM | 1.85 µM | 1.27 µM | 2.9 µM |
| COC(=O)CNC(=O)c1ccc(Nc2ncnc3cc(OCCCN4CCN(C)CC4)c(OC)cc23)cc1 | 0.275 µM | 0.611 µM | > 50 µM | > 50 µM | > 50 µM |
| COc1cc2c(Nc3ccc(NC(=O)Nc4ccc(C)c(C)c4)cc3)ncnc2cc1OCCCN1CCN(C)CC1 | 0.214 µM | 0.668 µM | 25.9 µM | 36.5 µM | 22 µM |
| COc1cc2c(Nc3ccc(NC(=O)Nc4ccc(C)c(C)c4)c(Cl)c3)ncnc2cc1OCCCN1CCN(C)CC1 | 0.079 µM | 0.001 µM | 1.76 µM | 7.28 µM | 26 µM |
